Values after ≈ are worked out from the molar mass of the structure shown. Read-outs that look alike come from different tables or passages of the source.
Experiments:
Type in all cases: cell-based
Proteus mirabilis 470/1 = assay: Minimum inhibitory concentration, urinary tract organisms (Example 13)
Procedure: (§1) The test compound was added to molten agar as a solution (when conveniently soluble in a solvent such as dimethylformamide) or a suspension forming a mixture having a concentration of 0.05 percent (500 ppm). The mixture was stirred and poured into plates to harden. When hardened, the plates were inoculated with various bacteria and fungi. The bacteria-inoculated plates were incubated at 37° C. for 24 hours, while the fungi-inoculated plates were incubated for about 72-120 hours. Following incubation, the plates were examined for growth or inhibition of the respective organisms.
(§2) After the initial readings, compounds showing sufficient activity were re-tested at various concentrations to determine the minimum inhibitory concentration (in ppm) of the compounds of the invention against the various bacteria and fungi tested.
(§3) Following a procedure substantially the same as that described in Example 12, the minimum inhibitory concentration for the compounds described herein was determined for various organisms representative of those commonly associated with urinary tract infections.
(§4) The organisms used in this procedure and the abbreviations designated in Table 3 are as follows: […]

[1] = system: Klebsiella pneumoniae ATCC 23357; assay: as above
Procedure: as §1, §2, §3, §4

Serratia marcescens M-1 = assay: as above
Procedure: as §1, §2, §3, §4

[2] = system: Klebsiella pneumoniae M-2; assay: as above
Procedure: as §1, §2, §3, §4

[3] = system: Pseudomonas aeruginosa ATCC 7700; assay: as above
Procedure: as §1, §2, §3, §4

[4] = system: Staphylococcus aureus ATCC 25923; assay: as above
Procedure: as §1, §2, §3, §4

[5] = system: Escherichia coli ATCC 4157; assay: as above
Procedure: as §1, §2, §3, §4

[6] = system: Klebsiella pneumoniae M-1; assay: as above
Procedure: as §1, §2, §3, §4

[7] = system: Escherichia coli ATCC 25922; assay: as above
Procedure: as §1, §2, §3, §4

[8] = system: Enterobacter aerogenes ATCC 13048; assay: as above; conditions: Klebsiella aerogenes
Procedure: as §1, §2, §3, §4

[9] = system: Klebsiella pneumoniae M-6; assay: as above
Procedure: as §1, §2, §3, §4

[10] = system: Pseudomonas aeruginosa ATCC 27853; assay: as above
Procedure: as §1, §2, §3, §4

[11] = system: Pseudomonas aeruginosa ATCC 10145; assay: as above
Procedure: as §1, §2, §3, §4

[12] = system: Escherichia coli ATCC 11229; assay: as above
Procedure: as §1, §2, §3, §4

[13] = system: Pseudomonas aeruginosa PRD-10; assay: as above
Procedure: as §1, §2, §3, §4

[14] = system: Escherichia coli ATCC 9723; assay: as above
Procedure: as §1, §2, §3, §4

Streptococcus mutans = assay: Agar-plate minimum inhibitory concentration (Example 12); conditions: agar, 37° C., 24 hours, read-out: Minimum Inhibitory Concentration
Procedure: as §1, §2

Candida albicans = assay: as above; conditions: agar, 72-120 hours, read-out: Minimum Inhibitory Concentration
Procedure: as §1, §2

Candida pelliculosa = assay: as above; conditions: Hansenula anomala; Candida pelliculosa; agar, 72-120 hours; read-out: Minimum Inhibitory Concentration
Procedure: as §1, §2

Salmonella typhosa = assay: as above; conditions: Salmonella enterica; Salmonella typhosa; agar, 37° C., 24 hours; read-out: Minimum Inhibitory Concentration
Procedure: as §1, §2

[15] = system: Trichophyton mentagrophytes; assay: as above; conditions: agar, 72-120 hours, read-out: Minimum Inhibitory Concentration
Procedure: as §1, §2

Bacillus subtilis = assay: as above; conditions: agar, 37° C., 24 hours, read-out: Minimum Inhibitory Concentration
Procedure: as §1, §2

Aspergillus niger = assay: as above; conditions: agar, 72-120 hours, read-out: Minimum Inhibitory Concentration
Procedure: as §1, §2

Ceratocystis ips = assay: as above; conditions: Ceratocystis ips; agar, 72-120 hours; read-out: Minimum Inhibitory Concentration
Procedure: as §1, §2

[16] = Pm 470/1, read-out: Minimum Inhibitory Concentration
[17] = ATCC23357, Kp 23357, read-out: Minimum Inhibitory Concentration
[18] = M1, Sr M-1, read-out: Minimum Inhibitory Concentration
[19] = M2, Kp M-2, read-out: Minimum Inhibitory Concentration
[20] = ATCC7700, Pa 7700, read-out: Minimum Inhibitory Concentration
[21] = ATCC25923, Sa 25923, read-out: Minimum Inhibitory Concentration
[22] = ATCC4157, Ec 4157, read-out: Minimum Inhibitory Concentration
[23] = M1, Kp M-1, read-out: Minimum Inhibitory Concentration
[24] = ATCC25922, Ec 25922, read-out: Minimum Inhibitory Concentration
[25] = ATCC13048, Ea 13048, read-out: Minimum Inhibitory Concentration
[26] = M6, Kp M-6, read-out: Minimum Inhibitory Concentration
[27] = ATCC27853, Pa 27853, read-out: Minimum Inhibitory Concentration
[28] = ATCC10145, Pa 10145, read-out: Minimum Inhibitory Concentration
[29] = ATCC11229, Ec 11229, read-out: Minimum Inhibitory Concentration
[30] = PRD10, Pa PRD-10, read-out: Minimum Inhibitory Concentration
[31] = ATCC9723, Ec 9723, read-out: Minimum Inhibitory Concentration
[32] = M1, read-out: Minimum Inhibitory Concentration

| SMILES | MIC (Proteus mirabilis 470/1; [16]) [mg/L] | MIC [1, 17] [mg/L] | MIC (Serratia marcescens M-1; [18]) [mg/L] | MIC [2, 19] [mg/L] | MIC [3, 20] [mg/L] | MIC [4, 21] [mg/L] | MIC [5, 22] [mg/L] | MIC [6, 23] [mg/L] | MIC [7, 24] [mg/L] | MIC [8, 25] [mg/L] | MIC [9, 26] [mg/L] | MIC [10, 27] [mg/L] | MIC [11, 28] [mg/L] | MIC [12, 29] [mg/L] | MIC [13, 30] [mg/L] | MIC [14, 31] [mg/L] | MIC (Streptococcus mutans) [mg/L] | MIC (Candida albicans) [mg/L] | MIC (Candida pelliculosa) [mg/L] | MIC (Salmonella typhosa) [mg/L] | other results |
| --- | --- | --- | --- | --- | --- | --- | --- | --- | --- | --- | --- | --- | --- | --- | --- | --- | --- | --- | --- | --- | --- |
| CCOC(=O)CNC(=O)Oc1c(Br)cc(Br)c2cccnc12 [Example 2, Ethyl N-(((5,7-dibromo-8-quinolinyl)oxy)carbonyl)glycinate] | 25 (≈ 57.9 µM) | 250 (≈ 579 µM) | 250 (≈ 579 µM) | 25 (≈ 57.9 µM) | 250 (≈ 579 µM) | 25 (≈ 57.9 µM) | 25 (≈ 57.9 µM) | 50 (≈ 116 µM) | 25 (≈ 57.9 µM) | 75 (≈ 174 µM) | 25 (≈ 57.9 µM) | 75 (≈ 174 µM) | 25 (≈ 57.9 µM) | 25 (≈ 57.9 µM) | 75 (≈ 174 µM) | 25 (≈ 57.9 µM) | 50 (≈ 116 µM) | 50 (≈ 116 µM) | 10 (≈ 23.1 µM) | 50 (≈ 116 µM) | MIC [15]: 50 mg/L (≈ 116 µM); MIC (Bacillus subtilis): 0.5 mg/L (≈ 1.16 µM); MIC (Aspergillus niger): 50 mg/L (≈ 116 µM); MIC (Ceratocystis ips): 50 mg/L (≈ 116 µM) |
| CCOC(=O)CNC(=O)Oc1ccc(Cl)c2cccnc12.CS(=O)(=O)O [Example 7, Ethyl N-(((5-chloro-8quinolinyl)oxy)carbonyl)glycinate methanesulfonic acid salt] | 75 | 75 | 100 | 75 | 250 | < 5 | 50 | 75 | 25 | 75 | 50 | 250 | 75 | 50 | 250 | 50 | 500 | 50 | 50 | 10 | MIC [15]: 10 mg/L; MIC (Bacillus subtilis): 5 mg/L; MIC (Aspergillus niger): 50 mg/L; MIC (Ceratocystis ips): 50 mg/L |
| CCOC(=O)CNC(=O)Oc1ccc([N+](=O)[O-])c2cccnc12 [Example 5, Ethyl N-(((5-nitro-8-quinolinyl)oxy)carbonyl)glycinate] | 10 (≈ 31.3 µM) | 10 (≈ 31.3 µM) | 50 (≈ 157 µM) | 25 (≈ 78.3 µM) | 100 (≈ 313 µM) | 25 (≈ 78.3 µM) | 25 (≈ 78.3 µM) | 25 (≈ 78.3 µM) | 10 (≈ 31.3 µM) | 25 (≈ 78.3 µM) | 25 (≈ 78.3 µM) | 75 (≈ 235 µM) | 25 (≈ 78.3 µM) | 25 (≈ 78.3 µM) | 50 (≈ 157 µM) | 25 (≈ 78.3 µM) | > 500 | 50 (≈ 157 µM) | 50 (≈ 157 µM) | 5 (≈ 15.7 µM) | MIC [15]: 50 mg/L (≈ 157 µM); MIC (Bacillus subtilis): 5 mg/L (≈ 15.7 µM); MIC (Aspergillus niger): 50 mg/L (≈ 157 µM); MIC (Ceratocystis ips): 100 mg/L (≈ 313 µM) |
| CNC(=O)Oc1c(Br)cc(Br)c2cccnc12 [Example 11, 5,7-Dibromo-8-quinolinyl N-methylcarbamate] | – | – | – | – | – | – | – | – | – | – | – | – | – | – | – | – | – | – | – | – | MIC (Proteus mirabilis 470/1; 470/1, read-out: Minimum Inhibitory Concentration): 25 mg/L (≈ 69.4 µM); MIC ([1]; ATCC23357, read-out: Minimum Inhibitory Concentration): 25 mg/L (≈ 69.4 µM); MIC (Serratia marcescens M-1; [32]): 50 mg/L (≈ 139 µM); MIC ([2]; M2, read-out: Minimum Inhibitory Concentration): 25 mg/L (≈ 69.4 µM); MIC ([3]; ATCC7700, read-out: Minimum Inhibitory Concentration): 100 mg/L (≈ 278 µM); MIC ([4]; ATCC25923, read-out: Minimum Inhibitory Concentration): 25 mg/L (≈ 69.4 µM); MIC ([5]; ATCC4157, read-out: Minimum Inhibitory Concentration): 25 mg/L (≈ 69.4 µM); MIC [6, 32]: 25 mg/L (≈ 69.4 µM); MIC ([7]; ATCC25922, read-out: Minimum Inhibitory Concentration): 25 mg/L (≈ 69.4 µM); MIC ([8]; ATCC13048, read-out: Minimum Inhibitory Concentration): 25 mg/L (≈ 69.4 µM); MIC ([9]; M6, read-out: Minimum Inhibitory Concentration): 25 mg/L (≈ 69.4 µM); MIC ([10]; ATCC27853, read-out: Minimum Inhibitory Concentration): 100 mg/L (≈ 278 µM); MIC ([11]; ATCC10145, read-out: Minimum Inhibitory Concentration): 25 mg/L (≈ 69.4 µM); MIC ([12]; ATCC11229, read-out: Minimum Inhibitory Concentration): 25 mg/L (≈ 69.4 µM); MIC ([13]; PRD10, read-out: Minimum Inhibitory Concentration): 100 mg/L (≈ 278 µM); MIC ([14]; ATCC9723, read-out: Minimum Inhibitory Concentration): 25 mg/L (≈ 69.4 µM) |
